Source: US20240174618A1, “SUBSTITUTED (2-HETEROARYLOXYPHENYL)SULFONATES, SALTS THEREOF AND THEIR USE AS HERBICIDAL AGENTS” (Bayer Aktiengesellschaft, priority 2021, published 2024)

Columns and labels:
Format in all cases: in vivo
[1] = tested on: Abutilon theophrasti (ABUTH); assay: A. Herbicidal pre-emergence efficacy, ABUTH; conditions: scored visually after about 3 weeks vs untreated controls
Description: (§1) Seeds of mono- and dicotyledonous weed plants were placed in plastic pots in sandy loam soil (doubly sown with one species each of mono- or dicotyledonous weed plants per pot) and covered with soil. The compounds of the invention, formulated in the form of wettable powders (WP) or as emulsion concentrates (EC), were then applied onto the surface of the covering soil as aqueous suspension or emulsion with addition of 0.5% additive at a water application rate of 600 liters per hectare (converted). After the treatment, the pots were placed in a greenhouse and kept under good growth conditions for the test plants. After about 3 weeks, the efficacy of the preparations was scored visually in comparison with untreated controls as percentages.
(§2) For example, • 100% efficacy=plants have died, • 0% efficacy=like untreated control plants.
(§3) Tables A1a to A12c below show the effects of selected compounds of the general formula (I) according to table 1 on various harmful plants at an application rate corresponding to 1280 g/ha or less, which were obtained by the experimental procedure mentioned above.

[2] = tested on: Echinochloa crus-galli (ECHCG); assay: A. Herbicidal pre-emergence efficacy, ECHCG; conditions: scored visually after about 3 weeks vs untreated controls
Description: as §1, §2, §3

[3] = tested on: Kochia scoparia (KCHSC); assay: A. Herbicidal pre-emergence efficacy, KCHSC
Description: as §1, §2, §3

[4] = tested on: Matricaria inodora (MATIN); assay: A. Herbicidal pre-emergence efficacy, MATIN
Description: as §1, §2, §3

[5] = tested on: Poa annua (POAAN); assay: A. Herbicidal pre-emergence efficacy, POAAN; conditions: dosage 1280 g/ha
Description: as §1, §2, §3

[6] = tested on: Setaria viridis (SETVI); assay: A. Herbicidal pre-emergence efficacy, SETVI
Description: as §1, §2, §3

[7] = tested on: Veronica persica (VERPE); assay: A. Herbicidal pre-emergence efficacy, VERPE
Description: as §1, §2, §3

[8] = tested on: Amaranthus retroflexus (AMARE); assay: A. Herbicidal pre-emergence efficacy, AMARE
Description: as §1, §2, §3

[9] = tested on: Kochia scoparia (KCHSC); assay: B. Herbicidal post-emergence efficacy, KCHSC; conditions: for Post-emergence efficacy against KCHSC in %: rated visually after about 3 weeks; for Post-emergence efficacy against KCHSC: 1280 g/ha
Experimental: (§4) Seeds of mono- and dicotyledonous weed plants were placed in plastic pots in sandy loam soil (doubly sown with in each case one species of mono- or dicotyledonous weed plants per pot), covered with soil and cultivated in a greenhouse under controlled growth conditions. 2 to 3 weeks after sowing, the test plants were treated at the one-leaf stage. The compounds of the invention, formulated in the form of wettable powders (WP) or as emulsion concentrates (EC), were applied onto the green parts of the plants as aqueous suspension or emulsion with addition of 0.5% additive at a water application rate of 600 liters per hectare (converted). After the test plants had been kept in the greenhouse under optimum growth conditions for about 3 weeks, the activity of the preparations was rated visually in comparison to untreated controls.
(§5) For example, • 100% efficacy=plants have died, • 0% efficacy=like untreated control plants
(§6) Tables B1a to B12c below show the effects of selected inventive compounds of the general formula (I) according to table 1 on various harmful plants at an application rate corresponding to 1280 g/ha or less, which were obtained by the experimental procedure mentioned above.

[10] = tested on: Veronica persica (VERPE); assay: B. Herbicidal post-emergence efficacy, VERPE
Experimental: as §4, §5, §6

[11] = tested on: Amaranthus retroflexus (AMARE); assay: B. Herbicidal post-emergence efficacy, AMARE
Experimental: as §4, §5, §6

[12] = tested on: Lolium rigidum (LOLRI); assay: A. Herbicidal pre-emergence efficacy, LOLRI; conditions: dosage 1280 g/ha
Description: as §1, §2, §3

[13] = tested on: Stellaria media (STEME); assay: A. Herbicidal pre-emergence efficacy, STEME
Description: as §1, §2, §3

[14] = tested on: Abutilon theophrasti (ABUTH); assay: B. Herbicidal post-emergence efficacy, ABUTH; conditions: rated visually after about 3 weeks
Experimental: as §4, §5, §6

[15] = tested on: Echinochloa crus-galli (ECHCG); assay: B. Herbicidal post-emergence efficacy, ECHCG; conditions: 1280 g/ha, rated visually after about 3 weeks
Experimental: as §4, §5, §6

[16] = tested on: Poa annua (POAAN); assay: B. Herbicidal post-emergence efficacy, POAAN; conditions: 1280 g/ha
Experimental: as §4, §5, §6

[17] = tested on: Stellaria media (STEME); assay: B. Herbicidal post-emergence efficacy, STEME
Experimental: as §4, §5, §6

[18] = tested on: Digitaria sanguinalis (DIGSA); assay: A. Herbicidal pre-emergence efficacy, DIGSA; conditions: scored visually after about 3 weeks vs untreated controls
Description: as §1, §2, §3

[19] = pre-emergence, dosage 1280 g/ha

SMILES	Pre-emergence efficacy against ABUTH ([1]; 1280 g/ha)	Pre-emergence efficacy against ECHCG ([2]; 1280 g/ha)	Pre-emergence efficacy against KCHSC [3, 19]	Pre-emergence efficacy against POAAN [5]	Pre-emergence efficacy against SETVI ([6]; dosage 320 g/ha)	Pre-emergence efficacy against SETVI ([6]; dosage 1280 g/ha)	Pre-emergence efficacy against VERPE in % ([7]; 1280 g/ha)	Pre-emergence efficacy against AMARE in % ([8]; 320 g/ha)	Pre-emergence efficacy against AMARE in % ([8]; 1280 g/ha)	Post-emergence efficacy against KCHSC in % ([9]; 320 g/ha)	Post-emergence efficacy against KCHSC [9]	Post-emergence efficacy against VERPE ([10]; 320 g/ha)	Post-emergence efficacy against VERPE ([10]; 1280 g/ha)	Post-emergence efficacy against AMARE ([11]; 320 g/ha)	Post-emergence efficacy against AMARE ([11]; 1280 g/ha)	Pre-emergence efficacy against STEME ([13]; dosage 1280 g/ha)	Post-emergence efficacy against ABUTH in % ([14]; 1280 g/ha)	Post-emergence efficacy against POAAN [16]	Post-emergence efficacy against STEME ([17]; 1280 g/ha)	Pre-emergence efficacy against DIGSA ([18]; 1280 g/ha)	also measured
CS(=O)(=O)Oc1ccccc1Oc1ncc(Cl)cn1 [Example I-1]	100%	100%	100%	90%	90%	100%	100%	100%	100%	100%	100%	90%	100%	100%	100%						Pre-emergence efficacy against KCHSC ([3]; pre-emergence, dosage 320 g/ha): 100%; Pre-emergence efficacy against MATIN ([4]; 320 g/ha, scored visually after about 3 weeks vs untreated controls): 90%; Pre-emergence efficacy against MATIN [4, 19]: 100%; Pre-emergence efficacy against VERPE in % ([7]; 320 g/ha): 100%; Pre-emergence efficacy against AMARE in % ([8]; 80 g/ha): 100%; Post-emergence efficacy against KCHSC in % ([9]; 80 g/ha): 90%; Post-emergence efficacy against AMARE ([11]; 80 g/ha): 100%
CC(C)S(=O)(=O)Oc1ccccc1Oc1ncc(Cl)cn1 [Example I-18]	100%	100%		90%		90%	100%	100%	100%	100%	100%	90%	90%	100%	100%	90%	90%	90%	90%		Pre-emergence efficacy against ABUTH ([1]; 320 g/ha): 90%; Pre-emergence efficacy against ECHCG ([2]; 320 g/ha): 90%; Pre-emergence efficacy against LOLRI [12]: 90%; Pre-emergence efficacy against MATIN [4, 19]: 90%; Pre-emergence efficacy against VERPE in % ([7]; 320 g/ha): 90%; Post-emergence efficacy against ECHCG in % [15]: 90%
O=S(=O)(Oc1ccccc1Oc1ncc(Cl)cn1)C1CCCC1 [Example I-19]	100%	90%	90%	90%	90%	100%		100%	100%	90%	100%	90%	100%	90%	100%	100%	90%	90%	100%	100%	Pre-emergence efficacy against ABUTH ([1]; 320 g/ha): 90%; Pre-emergence efficacy against DIGSA ([18]; 80 g/ha): 100%; Pre-emergence efficacy against DIGSA ([18]; 320 g/ha): 100%; Pre-emergence efficacy against KCHSC ([3]; pre-emergence, dosage 320 g/ha): 90%; Pre-emergence efficacy against STEME ([13]; dosage 320 g/ha): 100%; Pre-emergence efficacy against AMARE in % ([8]; 80 g/ha): 90%; Post-emergence efficacy against ABUTH in % ([14]; 320 g/ha): 90%; Post-emergence efficacy against ECHCG in % [15]: 90%; Post-emergence efficacy against STEME ([17]; 80 g/ha): 90%; Post-emergence efficacy against STEME ([17]; 320 g/ha): 100%; Post-emergence efficacy against VERPE ([10]; 80 g/ha): 90%
COCCS(=O)(=O)Oc1ccccc1Oc1ncc(Cl)cn1 [Example I-20]	100%	100%	100%	90%	90%	100%			90%	90%	100%	90%	100%	90%	100%	100%	90%	90%	100%	100%	Pre-emergence efficacy against ABUTH ([1]; 80 g/ha): 100%; Pre-emergence efficacy against ABUTH ([1]; 320 g/ha): 100%; Pre-emergence efficacy against DIGSA ([18]; 320 g/ha): 100%; Pre-emergence efficacy against KCHSC ([3]; 80 g/ha, scored visually after about 3 weeks vs untreated controls): 90%; Pre-emergence efficacy against KCHSC ([3]; pre-emergence, dosage 320 g/ha): 90%; Pre-emergence efficacy against LOLRI [12]: 90%; Pre-emergence efficacy against MATIN [4, 19]: 100%; Pre-emergence efficacy against STEME ([13]; dosage 320 g/ha): 100%
CCC(C)S(=O)(=O)Oc1ccccc1Oc1ncc(Cl)cn1 (stereo not shown) [Example I-22]	100%	90%	100%	90%	90%	100%	90%	90%	100%	90%	100%	100%	100%	90%	100%	100%	100%	90%	90%	100%	Pre-emergence efficacy against ABUTH ([1]; 320 g/ha): 100%; Pre-emergence efficacy against DIGSA ([18]; 320 g/ha): 100%; Pre-emergence efficacy against ECHCG ([2]; 320 g/ha): 90%; Pre-emergence efficacy against KCHSC ([3]; pre-emergence, dosage 320 g/ha): 90%; Pre-emergence efficacy against LOLRI [12]: 90%; Pre-emergence efficacy against STEME ([13]; dosage 80 g/ha): 100%; Pre-emergence efficacy against STEME ([13]; dosage 320 g/ha): 100%; Pre-emergence efficacy against AMARE in % ([8]; 80 g/ha): 90%; Post-emergence efficacy against ABUTH in % ([14]; 320 g/ha): 90%; Post-emergence efficacy against KCHSC in % ([9]; 80 g/ha): 90%; Post-emergence efficacy against STEME ([17]; 80 g/ha): 90%; Post-emergence efficacy against STEME ([17]; 320 g/ha): 90%; Post-emergence efficacy against VERPE ([10]; 80 g/ha): 90%
Cc1cccc(Oc2ncc(Cl)cn2)c1OS(=O)(=O)CCCC(F)(F)C(F)(F)F [Example I-69]	90%	90%	90%			100%	100%	100%	100%	100%	100%	100%	100%	100%	100%	90%	100%	90%	100%	90%	Pre-emergence efficacy against AMARE in % ([8]; 80 g/ha): 90%; Post-emergence efficacy against ABUTH in % ([14]; 80 g/ha): 90%; Post-emergence efficacy against ABUTH in % ([14]; 320 g/ha): 90%; Post-emergence efficacy against ECHCG in % [15]: 100%; Post-emergence efficacy against KCHSC in % ([9]; 80 g/ha): 90%; Post-emergence efficacy against STEME ([17]; 320 g/ha): 90%; Post-emergence efficacy against VERPE ([10]; 80 g/ha): 100%; Post-emergence efficacy against AMARE ([11]; 80 g/ha): 100%
O=S(=O)(CCC(F)=C(F)F)Oc1c(Br)cccc1Oc1ncc(Cl)cn1 [Example I-72]	90%		90%	100%	90%	100%	90%	90%	100%	100%	100%	100%	100%	100%	100%	100%	100%	90%	100%	100%	Pre-emergence efficacy against DIGSA ([18]; 320 g/ha): 90%; Pre-emergence efficacy against LOLRI [12]: 90%; Pre-emergence efficacy against STEME ([13]; dosage 320 g/ha): 90%; Pre-emergence efficacy against VERPE in % ([7]; 320 g/ha): 90%; Post-emergence efficacy against ABUTH in % ([14]; 320 g/ha): 90%; Post-emergence efficacy against ECHCG in % [15]: 100%; Post-emergence efficacy against KCHSC in % ([9]; 80 g/ha): 90%; Post-emergence efficacy against STEME ([17]; 80 g/ha): 90%; Post-emergence efficacy against STEME ([17]; 320 g/ha): 100%; Post-emergence efficacy against VERPE ([10]; 80 g/ha): 100%; Post-emergence efficacy against AMARE ([11]; 80 g/ha): 100%
